Test results: BindingDB's records for doi:10.1002/1439-7633(20021004)3:10 (Aventis Pharmaceuticals, 2002)
Several values for one entry are separate records, joined by “and”; a condition that tells them apart may be missing. Equal entries are not always repeated.

Molecular target: T1, Alpha-1B adrenergic receptor (Rattus norvegicus, UniProt P15823)
T1 sequence (P15823 whole entry): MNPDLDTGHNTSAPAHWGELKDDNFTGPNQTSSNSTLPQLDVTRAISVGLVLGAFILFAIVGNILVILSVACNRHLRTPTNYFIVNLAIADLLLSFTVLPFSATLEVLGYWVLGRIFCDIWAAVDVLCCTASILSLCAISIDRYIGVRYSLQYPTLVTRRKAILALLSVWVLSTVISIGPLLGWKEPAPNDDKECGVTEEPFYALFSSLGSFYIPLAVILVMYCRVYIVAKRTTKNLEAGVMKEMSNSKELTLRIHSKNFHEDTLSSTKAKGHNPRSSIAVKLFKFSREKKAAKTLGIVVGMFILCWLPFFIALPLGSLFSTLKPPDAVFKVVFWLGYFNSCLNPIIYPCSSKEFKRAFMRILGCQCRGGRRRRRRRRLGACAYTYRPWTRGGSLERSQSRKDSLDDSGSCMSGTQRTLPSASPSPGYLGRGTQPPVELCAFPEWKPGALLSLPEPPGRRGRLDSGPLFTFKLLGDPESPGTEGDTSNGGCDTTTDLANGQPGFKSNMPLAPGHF
Assay: Binding Assay
Method: All rat alpha-1 adrenoceptor binding was performed by Hugo M. vargas, Karen M. Brooks and Lynn Laws-Ricker.

SMILES	Ki
Cc1cccc2c1CN(CC(CO)N1CCC(c3noc4cc(F)ccc34)CC1)C2 (stereo not given) [Isoindoline, 16]	12.4 nM
OCC(CN1Cc2cccc(F)c2C1)N1CCC(c2noc3cc(F)ccc23)CC1 (stereo not given) [Isoindoline, 12]	232 nM
OCC(CN1Cc2ccc(Cl)cc2C1)N1CCC(c2noc3cc(F)ccc23)CC1 (stereo not given) [Isoindoline, 13]	11.9 nM
COc1ccc2c(c1)CN(CC(CO)N1CCC(c3noc4cc(F)ccc34)CC1)C2 (stereo not given) [Isoindoline, 19]	20 nM
O=C1c2ccccc2CN1CC(CO)N1CCC(c2noc3cc(F)ccc23)CC1 (stereo not given) [Isoindoline, 23]	4.1 nM
OCC(CN1Cc2ccc(F)cc2C1)N1CCC(c2noc3cc(F)ccc23)CC1 (stereo not given) [Isoindoline, 11]	92.5 nM
COc1cccc2c1CN(CC(CO)N1CCC(c3noc4cc(F)ccc34)CC1)C2 (stereo not given) [Isoindoline, 20]	17.5 nM
OCC(CN1Cc2ccccc2C1)N1CCC(c2noc3cc(F)ccc23)CC1 (stereo not given) [Isoindoline, 9]	43 nM and 54.5 nM and 225 nM
OCC(CN1CCc2ccccc2C1)N1CCC(c2noc3cc(F)ccc23)CC1 (stereo not given) [Isoindoline, 26]	19 nM
OCC(CN1Cc2ccc(C(F)(F)F)cc2C1)N1CCC(c2noc3cc(F)ccc23)CC1 (stereo not given) [Isoindoline, 17]	26 nM
